# Paper PMC10222328 (Pharmaceuticals, 2023)
# How the values were obtained:
# COX-2 = molecular target: T1, COX-2 (Homo sapiens, UniProt P35354); assay: Fluorometric COX-2 inhibitor screening kit; type: biochemical
# T1 construct: purchased Abcam, UK
# T1 sequence (P35354 18-604): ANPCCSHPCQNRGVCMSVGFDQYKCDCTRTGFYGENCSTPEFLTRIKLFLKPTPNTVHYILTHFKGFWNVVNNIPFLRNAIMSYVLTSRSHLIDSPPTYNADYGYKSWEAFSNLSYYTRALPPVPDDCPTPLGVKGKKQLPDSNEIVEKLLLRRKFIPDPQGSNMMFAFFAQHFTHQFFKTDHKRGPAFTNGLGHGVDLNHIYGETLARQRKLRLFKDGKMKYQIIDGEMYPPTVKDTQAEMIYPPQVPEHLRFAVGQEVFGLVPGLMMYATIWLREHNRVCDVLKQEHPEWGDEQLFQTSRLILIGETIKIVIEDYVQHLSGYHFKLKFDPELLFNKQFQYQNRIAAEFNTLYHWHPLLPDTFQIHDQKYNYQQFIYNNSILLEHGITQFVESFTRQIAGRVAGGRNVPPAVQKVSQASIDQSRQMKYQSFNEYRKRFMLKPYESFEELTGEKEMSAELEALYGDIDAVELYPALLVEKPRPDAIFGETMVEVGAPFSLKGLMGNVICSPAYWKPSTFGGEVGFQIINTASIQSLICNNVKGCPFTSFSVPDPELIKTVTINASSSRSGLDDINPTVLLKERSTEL
# Protocol: (§1) COX-2 and 5-LOX inhibitory activities were tested using fluorometric COX-2 and 5-LOX inhibitor screening kits (Abcam, UK). These assays are based on the fluorometric detection of Prostaglandin G2 (a product generated by the COX enzyme) or on the fluorometric detection of intermediate generated by the 5-LOX enzyme. The experiments were conducted according to the manufacturers’ instructions.
# (§2) For the determination of COX-2 inhibitory activity, tested compounds were dissolved in DMSO (5 mM stock solutions) and then diluted with the same solvent to obtain test solutions. Test solutions were further diluted 5X with COX assay buffer (2 µL of test solution and 8 µL COX assay buffer). […] Solvent control (SC) was prepared by adding 2 µL DMSO and 8 µL COX assay buffer, while sample (S) and enzyme control (EC) were prepared by adding 10 µL of diluted test solution and COX assay buffer, respectively, into assigned wells. For the determination of 5-LOX inhibitory activity, tested compounds were also dissolved in DMSO to prepare stock solutions with the same concentration (5mM), which were then diluted with the same solvent to obtain test solutions. Subsequently, test solutions were added to corresponding wells (2 µL).
# COX-1 = COX-1 over COX-2; cited from earlier work
# [1] = system: carrageenan-induced rat paw edema; assay: Carrageenan-induced rat paw edema model; type: in vivo, Wistar albino rats; details: for Rat paw thickness: mean ± SD; for inhibition in vivo at 2.5 mg/kg / inhibition in vivo at 5 mg/kg / inhibition in vivo at 10 mg/kg: Rattus norvegicus, po
# Protocol: In vivo assessment of anti-inflammatory activity of compounds 1–7 was conducted in the carrageenan-induced rat paw edema model. Inflammation in all rats was induced by an intraplantar injection of […] of 0.5% carrageenan saline in the left hind paw. Two hundred male Wistar albino rats (180–210 g) were divided into seven experimental (n = 168 rats, 8 rats per subgroup) and two control groups (n = 32 rats, 8 rats per subgroup).
# Experimental groups involved rats that received compounds 1–7, and they were divided into three subgroups: rats received compounds 1–7 per os in three doses (2.5 mg/kg, 5 mg/kg, and 10 mg/kg) dissolved in 1% DMSO for 60 min before inducing inflammation.
# In order to quantify the anti-inflammatory effect, the thickness of the left paw tissue of each rat was measured at the following time intervals: immediately before inducing inflammation (moment 0) and 1, 2, 3, and 4 h (moments 1, 2, 3, and 4) after inflammation. Tissue thickness was measured in the middle of the rat paw using a digital vernier caliper (Aerospace, Beijing, China).
# 5-LOX = molecular target: T2, 5-LOX (Homo sapiens, UniProt P09917); assay: Fluorometric 5-LOX inhibitor screening kit; type: biochemical; details: at 10 µM; mean ± standard error of two measurements; read-out: 5-LOX Percent of Inhibition
# T2 construct: purchased Abcam, UK
# T2 sequence (P09917 1-674): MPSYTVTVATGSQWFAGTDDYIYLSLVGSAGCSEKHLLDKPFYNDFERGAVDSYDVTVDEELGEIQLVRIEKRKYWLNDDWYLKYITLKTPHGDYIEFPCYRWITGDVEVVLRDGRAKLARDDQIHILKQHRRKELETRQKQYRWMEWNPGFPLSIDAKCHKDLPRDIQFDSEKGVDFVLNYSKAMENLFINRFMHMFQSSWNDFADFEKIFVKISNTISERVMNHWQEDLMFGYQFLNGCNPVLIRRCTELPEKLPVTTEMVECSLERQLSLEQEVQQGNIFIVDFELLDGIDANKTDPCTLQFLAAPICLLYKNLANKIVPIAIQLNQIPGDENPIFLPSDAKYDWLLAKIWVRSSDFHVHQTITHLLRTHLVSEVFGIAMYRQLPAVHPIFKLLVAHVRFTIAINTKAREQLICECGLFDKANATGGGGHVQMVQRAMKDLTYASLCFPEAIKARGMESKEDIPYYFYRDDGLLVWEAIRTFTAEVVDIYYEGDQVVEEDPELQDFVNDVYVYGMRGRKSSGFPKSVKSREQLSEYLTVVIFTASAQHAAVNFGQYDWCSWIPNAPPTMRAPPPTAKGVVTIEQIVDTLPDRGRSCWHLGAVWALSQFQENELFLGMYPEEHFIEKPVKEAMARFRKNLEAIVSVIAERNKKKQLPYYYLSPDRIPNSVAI
# Protocol: as §1, §2
smiles,measurement,setting,value
"COc1ccc2cc([C@H](C)C(=O)O)ccc2c1 [Naproxen, reference compound]",IC50,COX-2,200 ± 20 nM
same,inhibition at 10 µM,COX-2; read-out: COX-2 Percent of Inhibition,72.2 ± 1.4%
same,Selectivity for COX-1,COX-1,approximately five
same,Rat paw thickness,"[1]; 2.5 mg/kg per os, 1 h after carrageenan",6.20 ± 0.10 mm
same,Rat paw thickness,"[1]; 2.5 mg/kg per os, 2 h after carrageenan",5.87 ± 0.12 mm
same,Rat paw thickness,"[1]; 2.5 mg/kg per os, 3 h after carrageenan",5.60 ± 0.17 mm
same,Rat paw thickness,"[1]; 2.5 mg/kg per os, 4 h after carrageenan",5.03 ± 0.25 mm
same,Rat paw thickness,"[1]; 5.0 mg/kg per os, 1 h after carrageenan",5.87 ± 0.23 mm
same,Rat paw thickness,"[1]; 5.0 mg/kg per os, 2 h after carrageenan",5.37 ± 0.31 mm
same,Rat paw thickness,"[1]; 5.0 mg/kg per os, 3 h after carrageenan",5.07 ± 0.35 mm
same,Rat paw thickness,"[1]; 5.0 mg/kg per os, 4 h after carrageenan",4.83 ± 0.21 mm
same,Rat paw thickness,"[1]; 10.0 mg/kg per os, 1 h after carrageenan",5.73 ± 0.20 mm
same,Rat paw thickness,"[1]; 10.0 mg/kg per os, 2 h after carrageenan",5.40 ± 0.40 mm
same,Rat paw thickness,"[1]; 10.0 mg/kg per os, 3 h after carrageenan",5.20 ± 0.30 mm
same,Rat paw thickness,"[1]; 10.0 mg/kg per os, 4 h after carrageenan",4.80 ± 0.40 mm
same,inhibition in vivo at 2.5 mg/kg,"[1]; 1 h, 2.5 mg/kg per os, 1 h after carrageenan",18.9%
same,inhibition in vivo at 5 mg/kg,"[1]; 1 h, 5.0 mg/kg per os, 1 h after carrageenan",27.1%
same,inhibition in vivo at 10 mg/kg,"[1]; 1 h, 10.0 mg/kg per os, 1 h after carrageenan",35.4%
same,inhibition in vivo at 2.5 mg/kg,"[1]; 2 h, 2.5 mg/kg per os, 2 h after carrageenan",24.9%
same,inhibition in vivo at 5 mg/kg,"[1]; 2 h, 5.0 mg/kg per os, 2 h after carrageenan",41.8%
same,inhibition in vivo at 10 mg/kg,"[1]; 2 h, 10.0 mg/kg per os, 2 h after carrageenan",43.3%
same,inhibition in vivo at 2.5 mg/kg,"[1]; 3 h, 2.5 mg/kg per os, 3 h after carrageenan",25.1%
same,inhibition in vivo at 5 mg/kg,"[1]; 3 h, 5.0 mg/kg per os, 3 h after carrageenan",47.1%
same,inhibition in vivo at 10 mg/kg,"[1]; 3 h, 10.0 mg/kg per os, 3 h after carrageenan",45.2%
same,inhibition in vivo at 2.5 mg/kg,"[1]; 4 h, 2.5 mg/kg per os, 4 h after carrageenan",44.8%
same,inhibition in vivo at 5 mg/kg,"[1]; 4 h, 5.0 mg/kg per os, 4 h after carrageenan",49.4%
same,inhibition in vivo at 10 mg/kg,"[1]; 4 h, 10.0 mg/kg per os, 4 h after carrageenan",56.3%
"CC(c1cc2ccccc2s1)N(O)C(N)=O (stereo not shown) [Zileuton, reference compound]",inhibition at 10 µM,5-LOX,64.85 ± 0.39%
